This is an account of results in patent US20230095695A1, “RNAS FOR COMPLEMENT INHIBITION” (Apellis Pharmaceuticals, Inc., priority 2020, published 2023).

In the data set the test system is C3 mRNA. The experiment in a line: Dose response experiments (DRC) of modification variants, C3 mRNA knockdown in HepG2 cells. The conditions noted are these: for IC50 / IC80: 10 concentrations from 100 nM in 6-fold dilution steps; for Max KD: DRC experiments. The class given is cell-based, human. The method, then: HepG2 cells were obtained from ATCC (ATCC in partnership with LGC Standards, Wesel, Germany, cat. #ATCC-HB-8065) and cultured in MEM Eagle (#M2279, Sigma-Aldrich, Germany), supplemented to contain 10% fetal calf serum (#1248D, Biochrom GmbH, Berlin, Germany), 1× non-essential amino acids (#K0293; Biochrom, Berlin, Germany), 4 mM L-Glutamine (#K0283, Biochrom, Berlin, Germany) and 100 U/ml Penicillin/100 μg/ml Streptomycin (#A2213, Biochrom GmbH, Berlin, Germany) at 37° C. in an atmosphere with 5% CO2 in a humidified incubator.
siRNAs were designed and synthesized based on the nucleotide sequence of the top siRNAs in terms of activity from Examples 1 and 2 (siRNA ID: 1, 4, 9, 10, 16, and 22) with different modification patterns. 5 “variants” were designed and synthesized for each of the top siRNA nucleotide sequences, and each duplex is identified as “variant1”, “variant2”, “variant3”, variant4”, “variant5” depending on which modifications were made. siRNAs from Examples 1 and 2 (siRNA ID: 1, 4, 9, 10, 16, and 22) are identified as “variant0”.
Transfection of siRNA was carried out with Lipofectamine RNAiMax (Invitrogen/Life Technologies, Karlsruhe, Germany) according to manufacturer's instructions for reverse transfection.
Each siRNA was tested using dose response experiments (DRC) in HepG2 cells. Two additional siRNAs (siRNA ID 26 and 27), known to knockdown C3 expression, were used as positive controls.
Dose-response experiments were done with siRNA in 10 concentrations transfected in quadruplicates, starting at 100 nM in 6-fold dilutions steps down to ˜10 fM. Mock transfected cells served as negative controls.
For each well, the target mRNA level was normalized to the respective GAPDH mRNA level. The activity of a given siRNA was expressed as percent mRNA concentration of the respective target (normalized to GAPDH mRNA) in treated cells, relative to the target mRNA concentration (normalized to GAPDH mRNA) averaged across mock transfected wells (DRCs).

Oligonucleotides are written 5' to 3', each unit as a sugar letter and its base; * is a phosphorothioate linkage, no mark a phosphodiester; rarer units and linkages stand in square brackets, end groups in braces. Plain capitals give the bases only. m = 2'-O-methyl; {P} = phosphate; f = 2'-fluoro

Regarding “26 (sense CAACUCACCUGUAAUAAAUUU; antisense AUUUAUUACAGGUGAGUUGUU; siRNA; sense: all phosphodiester, sugars by position not given here; antisense: all phosphodiester, 5' {P}, sugars by position not given here) [compound 26]”, the IC50 was 0.006 nM, it took 0.062 nM to reach the 80% level (IC80) and the “Max KD” value is reported as 86%.
The corresponding values for “27 (sense GAGCCGUUCUCUACAAUUAUU; antisense UAAUUGUAGAGAACGGCUCUU; siRNA; sense: all phosphodiester, sugars by position not given here; antisense: all phosphodiester, 5' {P}, sugars by position not given here) [compound 27]” are 0.004 nM, 0.027 nM and 89%.
Consider “28 (sense mU*mC*fAmAmCmUfCfAfCmCmUfGmUmAmAmUfAmAmA; antisense mU*fU*mUmAmUmUmAmCmAmGmGmUmGfAmGmUmUmGmA*mU*mC; siRNA) [compound 28]”, for which the IC50 was 0.001 nM, the 80% effect concentration (IC80) turned out to be 0.711 nM and the “Max KD” value is 95%.
With “29 (sense fU*mC*fAmAfCmUfCmAfCmCfUmGfUmAfAmUfAmAfA; antisense mU*fU*mUfAmUfUmAfCmAfGmGfUmGfAmGfUmUfGmA*mU*mC; siRNA) [compound 29]”, half-maximal inhibition (IC50) was put at 0.979 nM and the “Max KD” value is on record as 68%.
Turning to “30 (sense fU*mC*fAmAfCmUfCmAfCmCfUmGfUmAfAmUfAmAfA; antisense mU*fU*mUmAmUmUmAmCmAmGmGmUmGfAmGmUmUmGmA*mU*mC; siRNA) [compound 30]”, the “Max KD” value was 36%.
Regarding “31 (sense fU*mC*fAmAfCmUfCmAfCmCfUmGfUmAfAmUfAmAfA; antisense mU*fU*mUmAmUfUmAmCmAmGmGmUmGfAmGfUmUmGmA*mU*mC; siRNA) [compound 31]”, half-maximal inhibition (IC50) was put at 0.343 nM, the IC80 is 7.64 nM and the “Max KD” value came to 81%.
With “32 (sense mU*mC*fAmAmCmUfCfAfCmCmUfGmUmAmAmUfAmAmA; antisense mU*fU*mUmAmUfUmAmCmAmGmGmUmGfAmGfUmUmGmA*mU*mC; siRNA) [compound 32]”, the “C3 knockdown, comparison among modification variants of the same nucleotide sequence” value is “most effective in C3 knockdown”; 0.018 nM corresponded to half-maximal inhibition (IC50); it took 0.108 nM to reach the 80% level (IC80); the “Max KD” value is 93%.
As for “33 (sense mU*mC*fCmAmAmGfCfCfUmUmGfGmCmUmCmAfAmUmA; antisense mU*fA*mUmUmGmAmGmCmCmAmAmGmGfCmUmUmGmGmA*mA*mC; siRNA) [compound 33]”, half-maximal inhibition (IC50) was put at 0.075 nM, it took 0.601 nM to reach the 80% level (IC80) and the “Max KD” value is given as 91%.
The corresponding values for “34 (sense fU*mC*fCmAfAmGfCmCfUmUfGmGfCmUfCmAfAmUfA; antisense mU*fA*mUfUmGfAmGfCmCfAmAfGmGfCmUfUmGfGmA*mA*mC; siRNA) [compound 34]” are 0.324 nM, 1.64 nM and 86%.
Regarding “35 (sense fU*mC*fCmAfAmGfCmCfUmUfGmGfCmUfCmAfAmUfA; antisense mU*fA*mUmUmGmAmGmCmCmAmAmGmGfCmUmUmGmGmA*mA*mC; siRNA) [compound 35]”, the 50% inhibitory concentration (IC50) stood at 0.622 nM and the “Max KD” value is reported as 55%.
The corresponding values for “36 (sense fU*mC*fCmAfAmGfCmCfUmUfGmGfCmUfCmAfAmUfA; antisense mU*fA*mUmUmGfAmGmCmCmAmAmGmGfCmUfUmGmGmA*mA*mC; siRNA) [compound 36]” are 0.486 nM and 68%.
On to “37 (sense mU*mC*fCmAmAmGfCfCfUmUmGfGmCmUmCmAfAmUmA; antisense mU*fA*mUmUmGfAmGmCmCmAmAmGmGfCmUfUmGmGmA*mA*mC; siRNA) [compound 37]”, for which it took 0.168 nM to reach half-maximal inhibition (IC50), the IC80 was found to be 1.38 nM and the “Max KD” value amounted to 86%.
The corresponding values for “38 (sense mA*mU*fCmGmGmAfUfCfUmUmCfAmCmCmGmUfCmAmA; antisense mU*fU*mGmAmCmGmGmUmGmAmAmGmAfUmCmCmGmAmU*mA*mG; siRNA) [compound 38]” are 0.151 nM, 0.728 nM and 91%.
Regarding “39 (sense fA*mU*fCmGfGmAfUmCfUmUfCmAfCmCfGmUfCmAfA; antisense mU*fU*mGfAmCfGmGfUmGfAmAfGmAfUmCfCmGfAmU*mA*mG; siRNA) [compound 39]”, the IC50 was determined as 0.326 nM, the 80% effect level (IC80) was put at 1.66 nM and the “Max KD” value stood at 86%.
The corresponding values for “40 (sense fA*mU*fCmGfGmAfUmCfUmUfCmAfCmCfGmUfCmAfA; antisense mU*fU*mGmAmCmGmGmUmGmAmAmGmAfUmCmCmGmAmU*mA*mG; siRNA) [compound 40]” are 0.468 nM, 2.44 nM and 87%.
“41 (sense fA*mU*fCmGfGmAfUmCfUmUfCmAfCmCfGmUfCmAfA; antisense mU*fU*mGmAmCfGmGmUmGmAmAmGmAfUmCfCmGmAmU*mA*mG; siRNA) [compound 41]”: half-maximal inhibition (IC50) required 1.4 nM, it took 11.1 nM to reach the 80% level (IC80) and the “Max KD” value was 84%.
The corresponding values for “42 (sense mA*mU*fCmGmGmAfUfCfUmUmCfAmCmCmGmUfCmAmA; antisense mU*fU*mGmAmCfGmGmUmGmAmAmGmAfUmCfCmGmAmU*mA*mG; siRNA) [compound 42]” are 0.5 nM, 2.91 nM and 84%.
As to “43 (sense mU*mC*fAmAmCmUfUfCfCmUmCfCmUmGmCmGfAmAmA; antisense mU*fU*mUmCmGmCmAmGmGmAmGmGmAfAmGmUmUmGmA*mC*mG; siRNA) [compound 43]”, the 50% inhibitory concentration (IC50) stood at 0.096 nM, the 80% effect level (IC80) was put at 3.22 nM and the “Max KD” value stood at 82%.
Regarding “44 (sense fU*mC*fAmAfCmUfUmCfCmUfCmCfUmGfCmGfAmAfA; antisense mU*fU*mUfCmGfCmAfGmGfAmGfGmAfAmGfUmUfGmA*mC*mG; siRNA) [compound 44]”, the midpoint of inhibition, the IC50, lay at 0.386 nM and the “Max KD” value was determined as 76%.
The corresponding values for “45 (sense fU*mC*fAmAfCmUfUmCfCmUfCmCfUmGfCmGfAmAfA; antisense mU*fU*mUmCmGmCmAmGmGmAmGmGmAfAmGmUmUmGmA*mC*mG; siRNA) [compound 45]” are 0.905 nM and 50%.
For “46 (sense fU*mC*fAmAfCmUfUmCfCmUfCmCfUmGfCmGfAmAfA; antisense mU*fU*mUmCmGfCmAmGmGmAmGmGmAfAmGfUmUmGmA*mC*mG; siRNA) [compound 46]”, the IC50 was determined as 0.54 nM and the “Max KD” value was 63%.
Consider “47 (sense UCAACUUCCUCCUGCGAAA; antisense UUUCGCAGGAGGAAGUUGACG; 2'-F, 2'-OMe, phosphorothioate modifications, chemistry not fully specified) [compound 47]”, for which half-maximal inhibition (IC50) was put at 0.055 nM, it took 0.708 nM to reach the 80% level (IC80) and the “Max KD” value is 83%.
The corresponding values for “48 (sense mC*mA*fAmUmGmAfCfUfUmUmGfAmCmGmAmGfUmAmA; antisense mU*fU*mAmCmUmCmGmUmCmAmAmAmGfUmCmAmUmUmG*mG*mA; siRNA) [compound 48]” are 0.119 nM, 8.35 nM and 82%.
Regarding “49 (sense fC*mA*fAmUfGmAfCmUfUmUfGmAfCmGfAmGfUmAfA; antisense mU*fU*mAfCmUfCmGfUmCfAmAfAmGfUmCfAmUfUmG*mG*mA; siRNA) [compound 49]”, the “Max KD” value was determined as 28%.
Regarding “50 (sense fC*mA*fAmUfGmAfCmUfUmUfGmAfCmGfAmGfUmAfA; antisense mU*fU*mAmCmUmCmGmUmCmAmAmAmGfUmCmAmUmUmG*mG*mA; siRNA) [compound 50]”, the “Max KD” value worked out at 16%.
In the case of “51 (sense fC*mA*fAmUfGmAfCmUfUmUfGmAfCmGfAmGfUmAfA; antisense mU*fU*mAmCmUfCmGmUmCmAmAmAmGfUmCfAmUmUmG*mG*mA; siRNA) [compound 51]”, the “Max KD” value stood at 32%.
As for “52 (sense mC*mA*fAmUmGmAfCfUfUmUmGfAmCmGmAmGfUmAmA; antisense mU*fU*mAmCmUfCmGmUmCmAmAmAmGfUmCfAmUmUmG*mG*mA; siRNA) [compound 52]”, it took 0.058 nM to reach half-maximal inhibition (IC50), the 80% effect concentration (IC80) worked out at 1.89 nM and the “Max KD” value came out at 85%.
Turning to “53 (sense mC*mC*fAmAmCmUfAfCfAmUmGfAmAmCmCmUfAmCmA; antisense mU*fG*mUmAmGmGmUmUmCmAmUmGmUfAmGmUmUmGmG*mC*mU; siRNA) [compound 53]”, the IC50 was determined as 0.056 nM, the 80% effect level (IC80) was put at 0.51 nM and the “Max KD” value is recorded as 91%.

By IC50 is commonly meant the point on the concentration scale where inhibition reaches its midpoint. Higher therefore signals lower potency. As a reminder, the IC80 is the concentration at which the effect reaches the 80% level.
